# System: 192522-019-R-J2-PDC complex tumor spheroid viability
# Experiment: Anticancer human tumor 192522-019-R-J2-PDC patient-derived colon adenocarcinoma cell line growth inhibition [POLQ]
# Details: for IC50: curve of first compound; for viability, T/C: stronger effect = lower value
# Method in brief: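 PDC + HUVEC + MSC complex spheroids; POLQ inhibitors ± partner drugs; top conc. at/near clinical Cmax, else 10 microM (SN-38 1 microM), half-log dilutions; 37 degrees C, 5% CO2.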
# [1] = second compound 0.0316 µM, first compound 0.0316 µM
# [2] = second compound 0.0316 µM, first compound 0.1 µM
# [3] = second compound 0.0316 µM, first compound 0.316 µM
# [4] = second compound 0.0316 µM, first compound 1 µM
# [5] = second compound 0.0316 µM, first compound 3.16 µM
# [6] = second compound 0.0316 µM, first compound 10 µM
# [7] = second compound 0.1 µM, first compound 0.0316 µM
# [8] = second compound 0.1 µM, first compound 0.1 µM
# [9] = second compound 0.1 µM, first compound 0.316 µM
# [10] = second compound 0.1 µM, first compound 1 µM
# [11] = second compound 0.1 µM, first compound 3.16 µM
# [12] = second compound 0.1 µM, first compound 10 µM
# [13] = second compound 0.316 µM, first compound 0.0316 µM
# [14] = second compound 0.316 µM, first compound 0.1 µM
# [15] = second compound 0.316 µM, first compound 0.316 µM
# [16] = second compound 0.316 µM, first compound 1 µM
# [17] = second compound 0.316 µM, first compound 3.16 µM
# [18] = second compound 0.316 µM, first compound 10 µM
# [19] = second compound 1 µM, first compound 0.0316 µM
# [20] = second compound 1 µM, first compound 0.1 µM
# [21] = second compound 1 µM, first compound 0.316 µM
# [22] = second compound 1 µM, first compound 1 µM
# [23] = second compound 1 µM, first compound 3.16 µM
# [24] = second compound 1 µM, first compound 10 µM
# [25] = second compound 3.16 µM, first compound 0.0316 µM
# [26] = second compound 3.16 µM, first compound 0.1 µM
# [27] = second compound 3.16 µM, first compound 0.316 µM
# [28] = second compound 3.16 µM, first compound 1 µM
# [29] = second compound 3.16 µM, first compound 3.16 µM
# [30] = second compound 3.16 µM, first compound 10 µM
# [31] = second compound 10 µM, first compound 0.0316 µM
# [32] = second compound 10 µM, first compound 0.1 µM
# [33] = second compound 10 µM, first compound 0.316 µM
# [34] = second compound 10 µM, first compound 1 µM
# [35] = second compound 10 µM, first compound 3.16 µM
# [36] = second compound 10 µM, first compound 10 µM
# 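Also: spheroids exposed to drugs for seven days before reading.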
# 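For viability, T/C in this document: 100% = DMSO vehicle control viability in luminescence.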
structure (smiles),measurement,setting,value
C=CC(=O)N1CCN(c2nc(=O)n(-c3c(C)ccnc3C(C)C)c3nc(-c4c(O)cccc4F)c(F)cc23)C(C)C1 (centres undefined) + COC1C(OC(N)=O)C(O)C(Oc2ccc3c(O)c(NC(=O)c4ccc(O)c(CC=C(C)C)c4)c(=O)oc3c2C)OC1(C)C,IC50,second compound 0.0316 µM,> 10 µM
same,IC50,second compound 0.1 µM,> 10 µM
same,IC50,second compound 0.316 µM,> 10 µM
same,IC50,second compound 1 µM,> 10 µM
same,IC50,second compound 3.16 µM,> 10 µM
same,IC50,second compound 10 µM,> 10 µM
same,"viability, T/C",[1],107%
same,"viability, T/C",[2],96.2%
same,"viability, T/C",[3],103%
same,"viability, T/C",[4],98.7%
same,"viability, T/C",[5],107%
same,"viability, T/C",[6],97%
same,"viability, T/C",[7],101%
same,"viability, T/C",[8],91.1%
same,"viability, T/C",[9],93.3%
same,"viability, T/C",[10],96.5%
same,"viability, T/C",[11],101%
same,"viability, T/C",[12],105%
same,"viability, T/C",[13],103%
same,"viability, T/C",[14],101%
same,"viability, T/C",[15],101%
same,"viability, T/C",[16],99.7%
same,"viability, T/C",[17],105%
same,"viability, T/C",[18],114%
same,"viability, T/C",[19],97.7%
same,"viability, T/C",[20],105%
same,"viability, T/C",[21],112%
same,"viability, T/C",[22],110%
same,"viability, T/C",[23],109%
same,"viability, T/C",[24],121%
same,"viability, T/C",[25],103%
same,"viability, T/C",[26],105%
same,"viability, T/C",[27],109%
same,"viability, T/C",[28],106%
same,"viability, T/C",[29],117%
same,"viability, T/C",[30],102%
same,"viability, T/C",[31],104%
same,"viability, T/C",[32],92.5%
same,"viability, T/C",[33],105%
same,"viability, T/C",[34],96.8%
same,"viability, T/C",[35],118%
same,"viability, T/C",[36],107%
CC(C)n1c(=O)n(C)c2cnc3cc(F)c(-c4ccc(OCCCN5CCCCC5)nc4)cc3c21 + COC1C(OC(N)=O)C(O)C(Oc2ccc3c(O)c(NC(=O)c4ccc(O)c(CC=C(C)C)c4)c(=O)oc3c2C)OC1(C)C,IC50,second compound 0.0316 µM,> 10 µM
same,IC50,second compound 0.1 µM,> 10 µM
same,IC50,second compound 0.316 µM,> 10 µM
same,IC50,second compound 1 µM,> 10 µM
same,IC50,second compound 3.16 µM,> 10 µM
same,IC50,second compound 10 µM,> 10 µM
same,"viability, T/C",[1],107%
same,"viability, T/C",[2],93.2%
same,"viability, T/C",[3],115%
same,"viability, T/C",[4],112%
same,"viability, T/C",[5],112%
same,"viability, T/C",[6],93.9%
same,"viability, T/C",[7],97.5%
same,"viability, T/C",[8],100%
same,"viability, T/C",[9],108%
same,"viability, T/C",[10],108%
same,"viability, T/C",[11],104%
same,"viability, T/C",[12],95.2%
same,"viability, T/C",[13],97.8%
same,"viability, T/C",[14],95.5%
same,"viability, T/C",[15],117%
same,"viability, T/C",[16],115%
same,"viability, T/C",[17],120%
same,"viability, T/C",[18],106%
same,"viability, T/C",[19],96.8%
same,"viability, T/C",[20],102%
same,"viability, T/C",[21],104%
same,"viability, T/C",[22],110%
same,"viability, T/C",[23],94.9%
same,"viability, T/C",[24],104%
same,"viability, T/C",[25],98.1%
same,"viability, T/C",[26],107%
same,"viability, T/C",[27],114%
same,"viability, T/C",[28],108%
same,"viability, T/C",[29],122%
same,"viability, T/C",[30],102%
same,"viability, T/C",[31],118%
same,"viability, T/C",[32],112%
same,"viability, T/C",[33],114%
same,"viability, T/C",[34],120%
same,"viability, T/C",[35],110%
same,"viability, T/C",[36],107%
